Numbered stars: 1 amine (or outer) side, 2 acyl side, 3 side chain; on linkers, the order of the positions; unused ones are H or OH. Bridge positions count the residues as written; N and C are the ends. Side chains are listed from the residue outwards. Peptide text beside a SMILES is read from it. * marks the point of attachment. C20 diacid = O=C(O)CCCCCCCCCCCCCCCCCCC(=O)*; γGlu = O=C(O)[C@H](CCC(=O)[*:2])N[*:1]; AEEA = NCCOCCOCC(=O)O
How the values were obtained:
Sprague Dawley (SD) rats = assay: ASSAY (I) efficacy testing on appetite (food intake) using an ad libitum fed rat model; assay type: in vivo; conditions: rat, 30 nmol/kg
Outline: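 Ad libitum fed SD rats (200–250 g) were housed singly on a reversed light/dark cycle and given one 0.01–3 mg/kg dose ip, po or sc just before lights-off, with 5–8 per dose group plus vehicle controls. Food intake was recorded hourly for 7 h, then at 24 h and sometimes 48 h; Grubbs outliers were excluded.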

[1] = biological target: T1, human amylin 3(a) receptor (human calcitonin receptor + RAMP-3) in BHK570 cells (Homo sapiens, UniProt O60896+P30988); assay: ASSAY (II)a functional assay, human amylin receptor (CRE luciferase); assay type: cell-based; conditions: for EC50: human amylin receptor functional potency, assay (II), read-out: hAmylin-R funct. EC50
T1 construct: expressed in transfected cells
T1 sequence (O60896 24-148): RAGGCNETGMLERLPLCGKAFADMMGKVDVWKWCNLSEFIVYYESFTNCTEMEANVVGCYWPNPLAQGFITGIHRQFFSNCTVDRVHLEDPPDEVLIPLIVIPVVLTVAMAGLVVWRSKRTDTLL
T1 sequence (P30988 25-474): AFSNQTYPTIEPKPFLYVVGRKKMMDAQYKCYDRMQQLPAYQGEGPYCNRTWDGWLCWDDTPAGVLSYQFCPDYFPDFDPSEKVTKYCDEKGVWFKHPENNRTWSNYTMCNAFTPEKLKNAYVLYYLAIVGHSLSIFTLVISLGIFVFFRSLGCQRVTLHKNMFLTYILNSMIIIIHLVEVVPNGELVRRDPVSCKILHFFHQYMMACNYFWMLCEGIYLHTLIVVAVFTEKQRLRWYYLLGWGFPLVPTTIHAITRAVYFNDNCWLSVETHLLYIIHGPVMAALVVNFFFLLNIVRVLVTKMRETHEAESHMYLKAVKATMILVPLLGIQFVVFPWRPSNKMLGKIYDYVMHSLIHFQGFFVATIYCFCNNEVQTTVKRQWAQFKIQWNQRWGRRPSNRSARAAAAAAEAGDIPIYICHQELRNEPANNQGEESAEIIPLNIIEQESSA
Outline: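 Cells were seeded and cultured overnight, then incubated with standard or sample for 3 h at 37° C in serum-containing medium at pH 7.4. The medium was then swapped for PBS, LucLite was added for 30 min at room temperature, and luminescence was recorded. Cells were BHK with CRE-luc and calcitonin receptor, ± RAMP-3.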

[2] = ASSAY (III) ThT fibrillation assay for physical stability; assay type: physicochemical
Outline: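 Formulations with 1 μM ThT, pH adjusted as required, incubated at 37 °C with 960 rpm orbital shaking; fluorescence (ex 444/em 485 nm) read every 20 min. Fibrillation reported as mean ThT fluorescence ± SD of 4–8 replicates at time points; polypeptide concentration measured by reverse-phase HPLC before and after, post-centrifugation.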

[3] = hCTR funct. EC50 divided by hAmylin-R funct. EC50
[4] = hCTR funct. EC50 over hAmylin-R funct. EC50
[5] = human functional selectivity: hCTR funct. EC50 / hAmylin-R funct. EC50

Ratio hCT/hAmylin funct. [1, 3] | Ratio hCT/hAmylin funct. [1, 4] | EC50 [1] [nM] | Ratio hCT/hAmylin funct. [1, 5] | ThT pH 4.0 lag time (h) [2] [h] | SMILES | Food intake reduction 0-24 h 30 nmol/kg (%) (Sprague Dawley (SD) rats) | Food intake reduction 24-48 h 30 nmol/kg (%) (Sprague Dawley (SD) rats)
24.8 | 24.8 | 0.297 | 24.8 | 22 | CC[C@H](C)[C@H](NC(=O)[C@H](C)NC(=O)CNC(=O)[C@H](Cc1ccccc1)NC(=O)[C@H](CC(N)=O)NC(=O)[C@@H]1CCCN1C(=O)[C@H](CO)NC(=O)[C@H](CO)NC(=O)[C@H](Cc1c[nH]cn1)NC(=O)[C@H](CCCNC(=N)N)NC(=O)[C@H](CC(C)C)NC(=O)[C@H](Cc1ccccc1)NC(=O)[C@H](CC(N)=O)NC(=O)[C@H](C)NC(=O)[C@H](CC(C)C)NC(=O)[C@H](CCCNC(=N)N)NC(=O)[C@H](CCC(N)=O)NC(=O)[C@@H](NC(=O)[C@H](C)NC(=O)[C@@H]1CSSC[C@H](NC(=O)[C@@H](N)CCCCNC(=O)COCCOCCNC(=O)CC[C@H](NC(=O)CCCCCCCCCCCCCCCCCCC(=O)O)C(=O)O)C(=O)N[C@@H](CC(N)=O)C(=O)N[C@@H]([C@@H](C)O)C(=O)N[C@@H](C)C(=O)N[C@@H]([C@@H](C)O)C(=O)N1)[C@@H](C)O)C(=O)N1CCC[C@H]1C(=O)N[C@@H](CO)C(=O)N[C@@H](CO)C(=O)N[C@H](C(=O)N[C@@H](CC(N)=O)C(=O)N[C@H](C(=O)NCC(=O)N[C@@H](Cc1c[nH]cn1)C(=O)N[C@@H](CC(N)=O)C(=O)N[C@H](C(=O)N[C@@H](Cc1ccc(O)cc1)C(N)=O)[C@@H](C)O)C(C)C)[C@@H](C)O [Example 76] (H-K([AEEA-γGlu-C20 diacid])CNTATCATQRLANFLRHSSPNFGAIPSSTNVGHNTY-NH2; disulfide 2-7; N-terminus assumed) | 31 | 2
29.3 | 29.3 | 0.278 | 29.3 | 17 | CC[C@H](C)[C@H](NC(=O)[C@H](C)NC(=O)CNC(=O)[C@H](Cc1ccccc1)NC(=O)[C@H](CC(N)=O)NC(=O)[C@@H]1CCCN1C(=O)[C@H](CO)NC(=O)[C@H](CO)NC(=O)[C@H](Cc1c[nH]cn1)NC(=O)[C@H](CCCNC(=N)N)NC(=O)[C@H](CC(C)C)NC(=O)[C@H](Cc1ccccc1)NC(=O)[C@H](CCC(=O)O)NC(=O)[C@H](C)NC(=O)[C@H](CC(C)C)NC(=O)[C@H](CCCNC(=N)N)NC(=O)[C@H](CCC(N)=O)NC(=O)[C@@H](NC(=O)[C@H](C)NC(=O)[C@@H]1CSSC[C@H](NC(=O)[C@@H](N)CCCCNC(=O)CC[C@H](NC(=O)CC[C@H](NC(=O)CCCCCCCCCCCCCCCCCCC(=O)O)C(=O)O)C(=O)O)C(=O)N[C@@H](CC(N)=O)C(=O)N[C@@H]([C@@H](C)O)C(=O)N[C@@H](C)C(=O)N[C@@H]([C@@H](C)O)C(=O)N1)[C@@H](C)O)C(=O)N1CCC[C@H]1C(=O)N[C@@H](CO)C(=O)N[C@@H](CO)C(=O)N[C@H](C(=O)N[C@@H](CC(N)=O)C(=O)N[C@H](C(=O)NCC(=O)N1CCC[C@H]1C(=O)N[C@@H](CCCNC(=N)N)C(=O)N[C@H](C(=O)N[C@@H](Cc1ccc(O)cc1)C(N)=O)[C@@H](C)O)C(C)C)[C@@H](C)O [Example 110] (H-K([γGlu-γGlu-C20 diacid])CNTATCATQRLAEFLRHSSPNFGAIPSSTNVGPRTY-NH2; disulfide 2-7) | 68 | 31
17.0 | 17.0 | – | 17.0 | 45 | CC[C@H](C)[C@H](NC(=O)[C@H](C)NC(=O)CNC(=O)[C@H](Cc1ccccc1)NC(=O)[C@H](CC(N)=O)NC(=O)[C@@H]1CCCN1C(=O)[C@H](CO)NC(=O)[C@H](CO)NC(=O)[C@H](Cc1c[nH]cn1)NC(=O)[C@H](CCCNC(=N)N)NC(=O)[C@H](CC(C)C)NC(=O)[C@H](Cc1ccccc1)NC(=O)[C@H](CCC(=O)O)NC(=O)[C@H](C)NC(=O)[C@H](CC(C)C)NC(=O)[C@H](CCCNC(=N)N)NC(=O)[C@H](CCC(N)=O)NC(=O)[C@@H](NC(=O)[C@H](C)NC(=O)[C@@H]1CSSC[C@H](NC(=O)[C@@H](N)CCCCNC(=O)CC[C@H](NC(=O)CCCCCCCCCCCCCCCCCCC(=O)O)C(=O)O)C(=O)N[C@@H](CC(N)=O)C(=O)N[C@@H]([C@@H](C)O)C(=O)N[C@@H](C)C(=O)N[C@@H]([C@@H](C)O)C(=O)N1)[C@@H](C)O)C(=O)N1CCC[C@H]1C(=O)N[C@@H](CO)C(=O)N[C@@H](CO)C(=O)N[C@H](C(=O)N[C@@H](CC(N)=O)C(=O)N[C@H](C(=O)NCC(=O)N1CCC[C@H]1C(=O)N[C@@H](CCCNC(=N)N)C(=O)N[C@H](C(=O)N[C@@H](Cc1ccc(O)cc1)C(N)=O)[C@@H](C)O)C(C)C)[C@@H](C)O [Example 117] (H-K([γGlu-C20 diacid])CNTATCATQRLAEFLRHSSPNFGAIPSSTNVGPRTY-NH2; disulfide 2-7; N-terminus assumed) | 61 | 4
44.9 | 44.9 | – | 44.9 | 45 | CC[C@H](C)[C@H](NC(=O)[C@H](C)NC(=O)CNC(=O)[C@H](Cc1ccccc1)NC(=O)[C@H](CC(N)=O)NC(=O)[C@@H]1CCCN1C(=O)[C@H](CO)NC(=O)[C@H](CO)NC(=O)[C@H](Cc1c[nH]cn1)NC(=O)[C@H](CCCNC(=N)N)NC(=O)[C@H](CC(C)C)NC(=O)[C@H](Cc1ccccc1)NC(=O)[C@H](CC(=O)O)NC(=O)[C@H](C)NC(=O)[C@H](CC(C)C)NC(=O)[C@H](CCCNC(=N)N)NC(=O)[C@H](CCC(N)=O)NC(=O)[C@@H](NC(=O)[C@H](C)NC(=O)[C@@H]1CSSC[C@H](NC(=O)[C@@H](N)CCCCNC(=O)CC[C@H](NC(=O)CC[C@H](NC(=O)CCCCCCCCCCCCCCCCCCC(=O)O)C(=O)O)C(=O)O)C(=O)N[C@@H](CC(N)=O)C(=O)N[C@@H]([C@@H](C)O)C(=O)N[C@@H](C)C(=O)N[C@@H]([C@@H](C)O)C(=O)N1)[C@@H](C)O)C(=O)N1CCC[C@H]1C(=O)N[C@@H](CO)C(=O)N[C@@H](CO)C(=O)N[C@H](C(=O)N[C@@H](CC(N)=O)C(=O)N[C@H](C(=O)NCC(=O)N1CCC[C@H]1C(=O)N[C@@H](CCCNC(=N)N)C(=O)N[C@H](C(=O)N[C@@H](Cc1ccc(O)cc1)C(N)=O)[C@@H](C)O)C(C)C)[C@@H](C)O [Example 130] (H-K([γGlu-γGlu-C20 diacid])CNTATCATQRLADFLRHSSPNFGAIPSSTNVGPRTY-NH2; disulfide 2-7 (inferred); N-terminus assumed) | 80 | 27
